pEC50, pIC50, pKi: −log10 of the molar value. Like-named read-outs stand apart in the source and are kept apart here. Positions of bridges follow the written chain, without caps; N, C: chain ends. Non-standard residues stand in square brackets, D forms with d. Residues, ends and D or L forms follow the SMILES beside them. *: point of attachment. X1 = NCc1ccc(CC(=O)*)cc1; PhAc = O=C(Cc1ccccc1)*; Aib = CC(C)(N)C(=O)O
Assays:
[1] = target: T1, human IR-A (holoIR-A) (Homo sapiens, UniProt P06213); assay: holoIR-A competitive radioligand binding assay (scintillation proximity assay); conditions: for pKi: primary peptide set, mean of 3 runs, read-out: IRA Binding Ki Mean; for weaker affinity for hIR-A than BHI: relative to biosynthetic human insulin
T1 construct: expressed in transfected cells; host or cells: HEK293 (ATCC #CRL-1573), stably transfected; membrane preparation
T1 sequence (P06213 28-1370 isoform P06213-2 limits assumed): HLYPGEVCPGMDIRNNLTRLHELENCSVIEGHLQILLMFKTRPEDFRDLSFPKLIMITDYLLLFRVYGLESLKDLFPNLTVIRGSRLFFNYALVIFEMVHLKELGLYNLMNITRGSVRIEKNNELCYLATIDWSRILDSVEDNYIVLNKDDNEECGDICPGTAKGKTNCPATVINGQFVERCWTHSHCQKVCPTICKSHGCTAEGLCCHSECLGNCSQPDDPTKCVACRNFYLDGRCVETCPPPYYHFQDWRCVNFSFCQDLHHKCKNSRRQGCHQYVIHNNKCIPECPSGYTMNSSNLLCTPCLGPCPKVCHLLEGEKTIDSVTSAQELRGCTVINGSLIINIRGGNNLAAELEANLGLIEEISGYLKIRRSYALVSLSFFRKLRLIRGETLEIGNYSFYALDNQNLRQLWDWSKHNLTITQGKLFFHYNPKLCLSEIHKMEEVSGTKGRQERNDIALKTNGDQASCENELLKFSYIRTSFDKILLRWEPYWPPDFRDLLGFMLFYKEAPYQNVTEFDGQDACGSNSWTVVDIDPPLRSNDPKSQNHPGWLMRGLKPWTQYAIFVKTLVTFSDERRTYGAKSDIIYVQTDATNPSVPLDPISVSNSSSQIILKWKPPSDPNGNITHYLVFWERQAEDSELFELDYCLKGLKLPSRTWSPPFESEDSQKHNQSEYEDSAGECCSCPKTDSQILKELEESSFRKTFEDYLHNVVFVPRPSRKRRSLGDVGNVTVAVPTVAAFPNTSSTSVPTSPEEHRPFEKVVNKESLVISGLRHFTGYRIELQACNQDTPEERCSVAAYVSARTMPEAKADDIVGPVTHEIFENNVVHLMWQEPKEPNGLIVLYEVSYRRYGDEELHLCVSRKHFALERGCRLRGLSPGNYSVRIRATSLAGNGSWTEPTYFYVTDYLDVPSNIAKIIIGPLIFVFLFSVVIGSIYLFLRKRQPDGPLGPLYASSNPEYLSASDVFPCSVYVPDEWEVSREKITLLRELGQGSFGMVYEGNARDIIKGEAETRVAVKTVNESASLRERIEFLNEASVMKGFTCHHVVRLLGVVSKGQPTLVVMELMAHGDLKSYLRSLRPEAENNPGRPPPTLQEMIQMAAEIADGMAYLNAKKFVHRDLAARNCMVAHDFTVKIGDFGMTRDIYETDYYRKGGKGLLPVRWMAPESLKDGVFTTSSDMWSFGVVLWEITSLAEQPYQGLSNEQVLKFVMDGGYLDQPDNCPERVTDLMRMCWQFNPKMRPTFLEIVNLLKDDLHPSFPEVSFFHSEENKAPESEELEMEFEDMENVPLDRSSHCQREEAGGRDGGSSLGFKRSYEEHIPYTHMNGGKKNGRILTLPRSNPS
T1 sequence (P06213 763-1382 partner limits assumed): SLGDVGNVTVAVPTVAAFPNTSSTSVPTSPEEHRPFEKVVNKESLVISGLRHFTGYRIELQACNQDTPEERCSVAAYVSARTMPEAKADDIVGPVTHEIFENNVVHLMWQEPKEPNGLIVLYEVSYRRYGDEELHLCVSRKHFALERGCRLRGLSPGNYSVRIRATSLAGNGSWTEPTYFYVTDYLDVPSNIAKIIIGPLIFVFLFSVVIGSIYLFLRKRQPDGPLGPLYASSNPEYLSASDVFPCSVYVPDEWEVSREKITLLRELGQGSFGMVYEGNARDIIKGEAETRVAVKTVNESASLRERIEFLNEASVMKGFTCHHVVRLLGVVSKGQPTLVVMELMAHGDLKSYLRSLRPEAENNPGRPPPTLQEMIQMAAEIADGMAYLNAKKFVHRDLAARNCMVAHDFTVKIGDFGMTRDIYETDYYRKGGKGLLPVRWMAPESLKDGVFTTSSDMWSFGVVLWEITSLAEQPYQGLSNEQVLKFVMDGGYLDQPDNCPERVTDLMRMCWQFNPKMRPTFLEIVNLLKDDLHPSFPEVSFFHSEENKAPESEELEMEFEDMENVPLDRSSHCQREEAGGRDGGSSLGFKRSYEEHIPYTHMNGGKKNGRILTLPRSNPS
How it was run: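 Membranes from HEK293 cells stably expressing C9-tagged human IR-A were used in a WGA-bead SPA competition assay in 50 mM Tris-HCl pH 7.5, 150 mM NaCl, 0.1% fatty-acid-free BSA. Ten-point 3-fold dilutions were incubated 10 h at room temperature before scintillation counting. Percent specific inhibition was calculated after nonspecific-binding correction, from three independent runs.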

[2] = target: T2, human holoIR-A over-expressed in HEK293 cells (Homo sapiens, UniProt P06213); assay: holoIR-A auto-phosphorylation assay (ELISA); type: cell-based
T2 construct: expressed in transfected cells; host or cells: HEK293, stably transfected
T2 sequence (P06213 28-1370 isoform P06213-2 limits assumed): as the sequence (P06213 28-1370 isoform P06213-2 limits assumed) above
T2 sequence (P06213 763-1382 partner limits assumed): as the sequence (P06213 763-1382 partner limits assumed) above
Experimental: Phosphorylation was quantified using an ELISA technique. Ninety-six well, flat-bottom microplates (Greiner Bio-One) were pre-coated with 2 µg mL^−1 anti-C9 monoclonal antibody (Rho 1D4; University of British Columbia)[27] in 20 mM sodium carbonate, pH 9.6, at 4 °C for overnight prior to the assay. On the assay day, plates were washed 3× with 0.1% Tween in 50 mM Tris Buffer Saline, pH 7.5 (TBST), and then blocked for greater than 1 h at room temperature (RT) with 1% BSA (Sigma) in TBST.
Stably transfected HEK293 cells over-expressing human holoIR-A containing a C-terminal C9 epitope tag ([…]), were plated at 6 × 10^4 cells per well serum-starved using 0.1% BSA in DMEM (Gibco) for overnight at standard tissue culture condition. […] After a 15-min incubation in lysis buffer at 4 °C, the lysate was transferred to anti-C9 antibody coated capture plate (Rho 1D4; University of British Columbia)[27]. […] After a 1 h incubation at room temperature, the secondary antibody was removed by washing 3× with TBST. Signal detection occurred with the addition of TMB, an HRP substrate (Pierce). After 5–10 min, the reaction was stopped by adding an equal volume of 2 M H2SO4, and the absorbance readings at 450 nm (A450) were recorded using a Envision plate reader (PerkinElmer). Samples were tested in three independent assay runs on three different days.
Percent specific response (y-axis) was plotted versus the log concentration of compound (x-axis) using Prism Version 9.3.1 (GraphPad Software). Individual measurements are provided as Source Data.

[3] = target: T2, human holoIR-A over-expressed in HEK293 cells; assay: Inhibition of hIR phosphorylation by peptides, co-incubated with BHI at its EC50 (ELISA); type: cell-based
How it was run: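 Serum-starved HEK293 cells stably over-expressing C9-tagged human holoIR-A were treated, lysed, and receptor captured on anti-C9-coated plates. Phosphorylation was detected by HRP/TMB ELISA at A450. Percent specific response was plotted against log compound concentration, with three independent runs on different days.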

[4] = system: [holoIR-A]-expressing IM-9 human lymphoblast cells; assay: holoIR-A accelerated dissociation assay of pre-bound 125I-insulin; type: binding; conditions: IM-9 cells, 1:40 dilution, 16 °C, 30 min; n = 3
Experimental: Ice-cold 15-25 pM ^125I-insulin solution was added to IM-9 cells and incubated at 4 °C for 2.5 h for pre-bound experiments. […] Following receptor and ^125I-insulin pre-bound, the mix was quickly centrifugated and supernatant was removed. The bound ^125I-insulin and IM-9 cells were then resuspended with 16 °C pre-equilibrated HBB, pH 7.6. The ^125I-ligand/IM-9 cell mixture was aliquoted to cold compounds at 1:40 ratio, respectively. The reactions were incubated at 16 °C for 30 min to allow dissociation of prebound ^125I-insulin and then harvested by centrifugation and aspiration of the supernatant. The radioactivity of cell pellets was determined by gamma counter (Perkin Elmer). Samples were tested in three independent assay runs on three different days. Individual measurements are provided as Source Data.

[5] = Fig. 1b, HEK293 hIR-A cells, 1 h 37 °C, ELISA, errors given as SEM, n = 3 independent replicates, read-out: Auto-phosphorylation constant EC50
[6] = primary peptide set, mean of 3 runs, read-out: hIRA Phosph EC50 Mean

pKi [1]	pEC50 [2, 5]	pEC50 [2, 6]	hIRA Phosph EC50 Run 1 ([2]; primary peptide set)	hIRA Phosph EC50 Run 2 ([2]; primary peptide set)	hIRA Phosph EC50 Run 3 ([2]; primary peptide set)	affinity for hIR (in words) ([1]; comparable to that of BHI)	weaker activity than BHI in an hIR autophosphorylation assay ([2]; relative to biosynthetic human insulin)	SMILES	weaker affinity for hIR-A than BHI [1]	activity in hIR autophosphorylation assay (in words) [2]	hIRA Phosph IC50 Run 1 ([3]; inhibition of insulin-stimulated phosphorylation, BHI at its EC50, run 1)	hIRA Phosph IC50 Run 2 ([3]; inhibition of insulin-stimulated phosphorylation, BHI at its EC50, run 2)	hIRA Phosph IC50 Run 3 ([3]; inhibition of insulin-stimulated phosphorylation, BHI at its EC50, run 3)	pIC50 ([3]; read-out: hIRA Phosph IC50 Mean)	effect on dissociation of pre-bound I125-insulin tracer from native membrane-expressed hIR (in words) [4]
6.51	< 5.00	< 5.00	>10 µM	>10 µM	>10 µM	–	–	COc1ccc(C[C@H](NC(=O)[C@H](CO)NC(=O)[C@H](CCC(=O)O)NC(=O)[C@H](CO)NC(=O)[C@@H]2CCCN2C(C)=O)C(=O)N[C@@H](Cc2ccc(O)cc2)C(=O)N[C@@H](CCCCN)C(=O)N[C@@H](Cc2c[nH]c3ccccc23)C(=O)N[C@@H](Cc2ccccc2)C(=O)N[C@@H](CCC(=O)O)C(=O)N[C@@H](CCCNC(=N)N)C(=O)N[C@@H](CCC(N)=O)C(=O)N[C@@H](CC(C)C)C(N)=O)cc1 [IM172C13] (Ac-PSESY(Me)YKWFERQL-NH2)	~1000 fold	devoid of detectable activity	–	–	–	–	–
9.59	–	8.15	0.006352 µM	0.008068 µM	0.006757 µM	sub-nM	~2.5 fold	CC[C@H](C)[C@H](NC(=O)[C@H](CCC(N)=O)NC(=O)[C@H](C)NC(=O)[C@H](Cc1c[nH]c2ccccc12)NC(=O)[C@H](CCC(=O)O)NC(=O)[C@H](CCC(=O)O)NC(=O)[C@H](CCC(=O)O)NC(=O)[C@H](CC(C)C)NC(=O)[C@H](CO)NC(=O)Cc1ccccc1)C(=O)N[C@@H](CCC(=O)O)C(=O)N[C@H]1CSSC[C@@H](C(=O)N2CCC[C@H]2C(=O)N2CCC[C@H]2C(=O)N[C@@H](CO)C(=O)N[C@@H](CCC(=O)O)C(=O)N[C@@H](CO)C(=O)N[C@@H](Cc2ccc(OC)cc2)C(=O)N[C@@H](Cc2ccc(O)cc2)C(=O)N[C@@H](CCCCN)C(=O)N[C@@H](Cc2c[nH]c3ccccc23)C(=O)N[C@@H](Cc2ccccc2)C(=O)N[C@@H](CCC(=O)O)C(=O)N[C@@H](CCCNC(=N)N)C(=O)N[C@@H](CCC(N)=O)C(=O)N[C@@H](CC(C)C)C(N)=O)NC(=O)[C@H](CCCNC(=N)N)NC(=O)CNC(=O)[C@H](Cc2ccc(O)cc2)NC(=O)[C@H](C(C)C)NC(=O)[C@H](CCC(=O)O)NC1=O [IM172] (PhAc-SLEEEWAQIECEVYGRCPPSESY(Me)YKWFERQL-NH2; disulfide 11-17)	–	–	–	–	–	–	trend similarly, but more weakly
6.67	< 6.00	< 6.00	>1 µM	>1 µM	>1 µM	–	–	COc1ccc(C[C@H](NC(=O)[C@H](C)NC(=O)[C@H](CCCCN)NC(=O)[C@H](CCCCN)NC(=O)[C@@H]2CCCN2C(C)=O)C(=O)N[C@@H](Cc2ccc(O)cc2)C(=O)N[C@@H](CCCCN)C(=O)N[C@@H](Cc2c[nH]c3ccccc23)C(=O)N[C@@H](Cc2ccccc2)C(=O)N[C@@H](CCC(=O)O)C(=O)N[C@@H](CCCNC(=N)N)C(=O)N[C@@H](CCC(N)=O)C(=O)N[C@@H](CC(C)C)C(=O)N[C@@H](CCCCN)C(N)=O)cc1 [IM459C14] (Ac-PKKAY(Me)YKWFERQLK-NH2)	–	–	–	–	–	–	no effect
7.97	< 6.00	< 6.00	>1 µM	>1 µM	>1 µM	–	–	CC[C@H](C)[C@H](NC(=O)[C@H](CCCCN)NC(=O)C(C)(C)NC(=O)[C@H](Cc1c[nH]c2ccccc12)NC(=O)[C@H](CCC(=O)O)NC(=O)[C@H](CCC(N)=O)NC(=O)[C@H](CCC(=O)O)NC(=O)[C@H](CC(C)C)NC(=O)[C@H](CO)NC(=O)Cc1ccc(CN)cc1)C(=O)N[C@@H](CCC(=O)O)C(=O)N[C@H]1CSSC[C@@H](C(=O)N2CCC[C@H]2C(=O)N2CCC[C@H]2C(=O)N[C@@H](CCCCN)C(=O)N[C@@H](CCCCN)C(N)=O)NC(=O)[C@H](CCCCN)NC(=O)CNC(=O)[C@H](Cc2ccc(O)cc2)NC(=O)[C@H](C(C)C)NC(=O)[C@H](CCC(=O)O)NC1=O [IM459N21] (X1-SLEQEW[Aib]KIECEVYGKCPPKK-NH2; disulfide 11-17)	–	–	–	–	–	–	effect of IM459 is fully reproduced
8.50	–	8.22	–	–	–	–	–	CC(C)C[C@H](NC(=O)[C@H](CCC(N)=O)NC(=O)[C@H](CCCNC(=N)N)NC(=O)[C@H](CCC(=O)O)NC(=O)[C@H](Cc1ccccc1)NC(=O)[C@H](Cc1c[nH]c2ccccc12)NC(=O)[C@H](CC(=O)O)NC(=O)[C@H](Cc1ccc(O)cc1)NC(=O)[C@H](Cc1ccccc1)NC(=O)[C@H](CO)NC(=O)[C@H](CCC(=O)O)NC(=O)[C@H](CC(=O)O)NC(=O)[C@H](CC(C)C)NC(=O)[C@H](CO)NC(=O)CNC(=O)[C@H](CO)NC(=O)[C@@H]1CCCN1C(=O)[C@@H]1CSSC[C@H](NC(=O)[C@H](CCC(=O)O)NC(=O)[C@@H](NC(=O)[C@H](CCC(N)=O)NC(=O)[C@H](C)NC(=O)[C@H](Cc2c[nH]c3ccccc23)NC(=O)[C@H](CCC(=O)O)NC(=O)[C@H](CCC(=O)O)NC(=O)[C@H](CCC(=O)O)NC(=O)[C@H](CC(C)C)NC(=O)[C@@H](N)CO)C(C)C)C(=O)N[C@@H](CCC(=O)O)C(=O)N[C@@H](C(C)C)C(=O)N[C@@H](Cc2ccc(O)cc2)C(=O)NCC(=O)N[C@@H](CCCNC(=N)N)C(=O)NCC(=O)N1)C(=O)NCC(=O)O [Peptide S519, reference compound] (H-SLEEEWAQVECEVYGRGCPSGSLDESFYDWFERQLG-OH; disulfide 11-18)	–	–	–	–	–	–	–

SMILES	pKi [1]	pEC50 [2, 5]	pEC50 [2, 6]	hIRA Phosph EC50 Run 1 ([2]; primary peptide set)	hIRA Phosph EC50 Run 2 ([2]; primary peptide set)	hIRA Phosph EC50 Run 3 ([2]; primary peptide set)	affinity for hIR (in words) ([1]; comparable to that of BHI)	weaker activity than BHI in an hIR autophosphorylation assay ([2]; relative to biosynthetic human insulin)	weaker affinity for hIR-A than BHI [1]	activity in hIR autophosphorylation assay (in words) [2]	hIRA Phosph IC50 Run 1 ([3]; inhibition of insulin-stimulated phosphorylation, BHI at its EC50, run 1)	hIRA Phosph IC50 Run 2 ([3]; inhibition of insulin-stimulated phosphorylation, BHI at its EC50, run 2)	hIRA Phosph IC50 Run 3 ([3]; inhibition of insulin-stimulated phosphorylation, BHI at its EC50, run 3)	pIC50 ([3]; read-out: hIRA Phosph IC50 Mean)	effect on dissociation of pre-bound I125-insulin tracer from native membrane-expressed hIR (in words) [4]
CC[C@H](C)[C@H](NC(=O)[C@H](CCC(N)=O)NC(=O)[C@H](C)NC(=O)[C@H](Cc1c[nH]c2ccccc12)NC(=O)[C@H](CCC(=O)O)NC(=O)[C@H](CCC(=O)O)NC(=O)[C@H](CCC(=O)O)NC(=O)[C@H](CC(C)C)NC(=O)[C@H](CO)NC(=O)Cc1ccccc1)C(=O)N[C@@H](CCC(=O)O)C(=O)N[C@H]1CSSC[C@@H](C(=O)N2CCC[C@H]2C(=O)N2CCC[C@H]2C(=O)N[C@@H](CO)C(=O)N[C@@H](CCC(=O)O)C(=O)N[C@@H](CO)C(N)=O)NC(=O)[C@H](CCCNC(=N)N)NC(=O)CNC(=O)[C@H](Cc2ccc(O)cc2)NC(=O)[C@H](C(C)C)NC(=O)[C@H](CCC(=O)O)NC1=O [IM172N22] (PhAc-SLEEEWAQIECEVYGRCPPSES-NH2; disulfide 11-17)	8.51	< 6.00	< 6.00	>1 µM	>1 µM	>1 µM	–	–	~10 fold	devoid of detectable activity	0.017 µM	0.017 µM	0.017 µM	7.77	–

Source: article PMC9519552, “Activation of the human insulin receptor by non-insulin-related peptides” (Nature Communications, 2022)
